Data as given in patent US20020198254A1, “Polyamide analogs” (priority 2000, published 2002).
≈ marks a conversion by molar mass, not a printed value. Where two headings read alike, the source gives them in different places.

Key:
Format in all cases: cell-based
[1] = test system: VRE-UCD3 (vancomycin resistant enterococci); assay: MIC assay, VRE strain UCD-3; settings: for MIC: Enterococcus, VRE
Procedure: (§1) These assays are adapted from NCCLS protocols M7-A4 and M27-A (NCCLS vol 17:9 and vol 17:2) as modified by Sandven, S. Clin. Micro. (1999) 37:12, p.3856-3859. MIC values for Aspergillus fumigatus were determined using NCCLS protocol M38-P.
(§2) All compounds were dissolved in 100% DMSO to a stock concentration of 10 mM and use fresh or stored at −80° C. Stock compounds were kept frozen until needed and used freshly with no more then one freeze-thaw cycle. When used for test purposes, compounds were diluted in the appropriate media depending on the organism being tested.
(§3) For yeast and aspergillus species, seven 1:2 serial dilutions of compound in appropriate media buffered with MOPS at pH 7.0 were prepared such that the final starting test compound concentrations were 50.0 uM for yeast and 50 uM aspergillus species. For bacteria, dilutions were made in growth media used for the particular bacteria being tested.
(§4) Inoculums are made in the same manner as yeast except all dilutions are made in normal saline, with a final dilution of 1:200 and an inoculum of 10 μL. VRE are vancomycin resistant enterococci, BM4147 and UCD-3 represent two different sources of VRE. MRSA are […] resistant Staphylococcus Aureus.

[2] = test system: VRE-CSUC4 (vancomycin resistant enterococci); assay: MIC assay, VRE strain CSUC-4; settings: for MIC: Enterococcus, VRE
Procedure: as §1, §2, §3, §4

[3] = test system: VRE-UL17 (vancomycin resistant enterococci); assay: MIC assay, VRE strain UL-17; settings: for MIC: Enterococcus, VRE
Procedure: as §1, §2, §3, §4

[4] = test system: VRE-BM4147 (vancomycin resistant enterococci); assay: MIC assay, VRE strain BM4147; settings: for MIC: Enterococcus, VRE
Procedure: as §1, §2, §3, §4

[5] = test system: Moraxella catarrhalis; assay: MIC assay, M. catarrhalis; settings: BHI, 16 h
Procedure: as §1, §2, §3, §4

[6] = test system: Bacillus cereus; assay: MIC assay, B. cereus; settings: CAMHB, 16 h
Procedure: as §1, §2, §3, §4

[7] = test system: Pseudomonas aeruginosa; assay: MIC assay, P. aeruginosa; settings: CAMHB, 16 h
Procedure: as §1, §2, §3, §4

[8] = test system: Staphylococcus aureus; assay: MIC assay, S. aureus; settings: CAMHB, 16 h
Procedure: as §1, §2, §3, §4

[9] = test system: Haemophilus influenzae; assay: MIC assay, H. influenzae; settings: HTM, 24 h
Procedure: as §1, §2, §3, §4

[10] = test system: Streptococcus pneumoniae; assay: MIC assay, S. pneumoniae; settings: CAMHB + 5% LHB, 24 h
Procedure: as §1, §2, §3, §4

[11] = test system: Candida albicans; assay: MIC assay, yeast C. albicans; settings: RPMI, 48 h, Alamar Blue

| MIC Assay VRE Strains: UCD-3 van25 ([1]; 25 μg/mL Vancomycin - 24 h) | MIC Assay VRE Strains: UCD-3 van0 ([1]; No vancomycin - 16 h) | MIC Assay VRE Strains: CSUC-4 van25 ([2]; 25 μg/mL Vancomycin - 24 h) | MIC Assay VRE Strains: CSUC-4 van0 ([2]; No vancomycin - 16 h) | MIC Assay VRE Strains: UL-17 van25 ([3]; 25 μg/mL Vancomycin - 24 h) | MIC Assay VRE Strains: UL-17 van0 ([3]; No vancomycin - 16 h) | MIC Assay VRE Strains: BM4147 van25 ([4]; 25 μg/mL Vancomycin - 24 h) | MIC Assay VRE Strains: BM4147 van0 ([4]; No vancomycin - 16 h) | MIC Assay Other Strains: M. catarrhalis [5] | MIC Assay Other Strains: B. cereus [6] | MIC Assay Other Strains: P. aeruginosa [7] | MIC Assay Other Strains: S. aureus [8] | MIC Assay Other Strains: H influenzae [9] | MIC Assay Other Strains: S. pneumoniae [10] | MIC Assay C. Albicans [11] | Compound | also measured |
| --- | --- | --- | --- | --- | --- | --- | --- | --- | --- | --- | --- | --- | --- | --- | --- | --- |
| >45.5 µM | >45.5 µM | >45.5 µM | >45.5 µM | >45.5 µM | >45.5 µM | >45.5 µM | >45.5 µM | >45.5 µM | >45.5 µM | >45.5 µM | >45.5 µM | >45.5 µM | >45.5 µM | >44.4 µM | Cn1cc(NC(=O)c2cc(NC(=O)CN)cn2C)cc1C(=O)NCCNC(=O)c1cc(NC(=O)c2cc(NC(=O)CN)cn2C)cn1C [Compound 10, bis-1,2-{4-[(NH2CH2CONH)-1-methyl-1H-pyrrol-2-yl-carbonylamino]-1-methyl-1H-pyrrol-2-ylcarbonylamino}ethane] |  |
| >45.5 µM | >45.5 µM | >45.5 µM | >45.5 µM | >45.5 µM | >45.5 µM | >45.5 µM | >45.5 µM | >45.5 µM | >45.5 µM | >45.5 µM | >45.5 µM | >45.5 µM | >45.5 µM | >44.4 µM | Cn1cc(NC(=O)CN)cc1C(=O)Nc1cc(C(=O)NC2CCC(CC3CCC(NC(=O)c4cc(NC(=O)c5cc(NC(=O)CN)cn5C)cn4C)CC3)CC2)n(C)c1 (centres unmarked) [Compound 21] |  |
| >45.5 µM |  | >45.5 µM |  | >45.5 µM |  | >45.5 µM |  | >45.5 µM | >45.5 µM | >45.5 µM | >45.5 µM | >45.5 µM | >45.5 µM | >44.4 µM | Cn1cc(NC(=O)c2cc(NC(=O)c3cc(NC(=O)CN)cn3C)cn2C)cc1C(=O)NCCCN(CCCN)CCCNC(=O)c1cc(NC(=O)c2cc(NC(=O)c3cc(NC(=O)CN)cn3C)cn2C)cn1C [Compound 66, N,N-bis-{4-{4-[(NH2CH2CONH)-1-methyl-1H-pyrrol-2-yl-carbonylamino]-1-methyl-1H-pyrrol-2-ylcarbonylamino}-1-methyl-1H-pyrrol-2-yl-carbonylaminopropyl}-N-(3-aminoethylpropyl)amine] |  |
| 11.4 µM | 5.7 µM (≈ 6.23 µg/mL) | 22.7 µM | 22.7 µM (≈ 24.8 µg/mL) | 22.7 µM | 11.4 µM (≈ 12.5 µg/mL) | 22.7 µM | 22.7 µM (≈ 24.8 µg/mL) | 1.4 µM (≈ 1.53 µg/mL) | 11.4 µM (≈ 12.5 µg/mL) | >45.5 µM | 22.7 µM (≈ 24.8 µg/mL) | >45.5 µM | 2.8 µM | >44.4 µM | Cn1cc(NC(=O)c2cc(NC(=O)CN)cn2C)cc1C(=O)NCCCN(CCCNC(=O)c1cc(NC(=O)c2cc(NC(=O)CN)cn2C)cn1C)CCCNC(=O)c1cc(NC(=O)c2cc(NC(=O)CN)cn2C)cn1C [Compound 74, tris-{4-[(NH2CH2CONH)-1-methyl-1H-pyrrol-2-yl-carbonylamino]-1-methyl-1H-pyrrol-2-yl-carbonylaminopropyl}amine] |  |
|  |  |  |  |  |  |  |  |  |  |  |  |  |  |  | Cn1cc(NC(=O)c2cc(NC(=O)CN)cn2C)cc1C(=O)NCCCNCCCNC(=O)c1cc(NC(=O)c2cc(NC(=O)CN)cn2C)cn1C [Compound 113] | MIC ([1]; 25 μg/mL Vancomycin - 24 h, read-out: MIC Assay VRE Strains: UCD-3 van25): 11.4 µM; MIC ([1]; No vancomycin - 16 h, read-out: MIC Assay VRE Strains: UCD-3 van0): 22.7 µM (≈ 16.7 µg/mL); MIC ([2]; 25 μg/mL Vancomycin - 24 h, read-out: MIC Assay VRE Strains: CSUC-4 van25): 45.5 µM; MIC ([2]; No vancomycin - 16 h, read-out: MIC Assay VRE Strains: CSUC-4 van0): 22.7 µM (≈ 16.7 µg/mL); MIC ([3]; 25 μg/mL Vancomycin - 24 h, read-out: MIC Assay VRE Strains: UL-17 van25): 22.7 µM; MIC ([3]; No vancomycin - 16 h, read-out: MIC Assay VRE Strains: UL-17 van0): > 45.5 µM; MIC ([4]; 25 μg/mL Vancomycin - 24 h, read-out: MIC Assay VRE Strains: BM4147 van25): 22.7 µM; MIC ([4]; No vancomycin - 16 h, read-out: MIC Assay VRE Strains: BM4147 van0): 22.7 µM (≈ 16.7 µg/mL); MIC ([5]; Moraxella catarrhalis, read-out: MIC Assay Other Strains: M. catarrhalis): 5.7 µM (≈ 4.18 µg/mL); MIC ([6]; Bacillus cereus, read-out: MIC Assay Other Strains: B. cereus): 11.4 µM (≈ 8.37 µg/mL); MIC ([7]; Pseudomonas aeruginosa, read-out: MIC Assay Other Strains: P. aeruginosa): > 45.5 µM; MIC ([8]; Staphylococcus aureus, read-out: MIC Assay Other Strains: S. aureus): > 45.5 µM; MIC ([9]; Haemophilus influenzae, read-out: MIC Assay Other Strains: H influenzae): > 45.5 µM; MIC ([10]; Streptococcus pneumoniae, read-out: MIC Assay Other Strains: S. pneumoniae): 11.4 µM; MIC ([11]; Candida albicans): > 44.4 µM |

| Compound | MIC Assay VRE Strains: UCD-3 van25 ([1]; 25 μg/mL Vancomycin - 24 h) | MIC Assay VRE Strains: UCD-3 van0 ([1]; No vancomycin - 16 h) | MIC Assay VRE Strains: CSUC-4 van25 ([2]; 25 μg/mL Vancomycin - 24 h) | MIC Assay VRE Strains: CSUC-4 van0 ([2]; No vancomycin - 16 h) | MIC Assay VRE Strains: UL-17 van25 ([3]; 25 μg/mL Vancomycin - 24 h) | MIC Assay VRE Strains: UL-17 van0 ([3]; No vancomycin - 16 h) | MIC Assay VRE Strains: BM4147 van25 ([4]; 25 μg/mL Vancomycin - 24 h) | MIC Assay VRE Strains: BM4147 van0 ([4]; No vancomycin - 16 h) | MIC Assay Other Strains: M. catarrhalis [5] | MIC Assay Other Strains: B. cereus [6] | MIC Assay Other Strains: P. aeruginosa [7] | MIC Assay Other Strains: S. aureus [8] | MIC Assay Other Strains: H influenzae [9] | MIC Assay Other Strains: S. pneumoniae [10] | MIC Assay C. Albicans [11] | also measured |
| --- | --- | --- | --- | --- | --- | --- | --- | --- | --- | --- | --- | --- | --- | --- | --- | --- |
| Cn1cc(NC(=O)c2cc(NC(=O)CN)cn2C)cc1C(=O)NCCCN(CCCNC(=O)c1cc(NC(=O)c2cc(NC(=O)CN)cn2C)cn1C)C(=O)OCc1ccccc1 [Compound 42] | 45.5 µM | 45.5 µM (≈ 39.5 µg/mL) | 22.7 µM | 22.7 µM (≈ 19.7 µg/mL) | 45.5 µM | 22.7 µM (≈ 19.7 µg/mL) | >45.5 µM | >45.5 µM | 11.4 µM (≈ 9.89 µg/mL) | 11.4 µM (≈ 9.89 µg/mL) | >45.5 µM | >45.5 µM | >45.5 µM | 1.4 µM | >44.4 µM |  |
